Columns and labels:
Thrips palmi [1] = assay: Test Example 12: blue polyethylene sheet (Production Example 10) in glass vessel with cucumber seedlings, count of adults; type: in vivo; details: 28° ±1°C
Text: The same procedure as in Production Example 9 is repeated except that a colored master batch for blue coloration (SPEM 510 produced by Sumika Color Co.; pigment content: 12 wt.%) replaces the colored master batch for yellow coloration. Thus, a sheet-form material for controlling pests is obtained.
Soil was placed on the bottom of a glass vessel of 70 cm x 35 cm x 35 cm in size. Three cucumber seedings, on which Thrips palmi had been parasitized, were planted at the central part of the glass vessel. After three days, the material for controlling pests prepared according to Production Example 10 was formed into a size of 15 cm x 15 cm and set at a height of 5 cm above the ground. On the other hand, the same test was carried out by setting a blue film containing no insect growth regulator, a control, in the same manner as in setting the above material for controlling pests.
(§1) On the predetermined day, the number of Thrips palmi adults parasitized on the cucumbers was counted. The tests were carried out in a room kept at 28° ±1°C.

sweetpotato whitefly = assay: Test Example 6: spray-coated yellow Kent paper (Production Example 5) in net cage, hatching inhibition; type: in vivo, Bemisia tabaci; details: yellow Kent paper 15 cm x 15 cm, 1 g/m², spray-coated from acetone; eggs laid on kidney bean
Protocol: One part of the insect growth regulator is dissolved in 99 parts of acetone. One hundred grams of the resulting solution is spray-coated onto a square yellow Kent paper having a side of 100 cm to obtain a material for controlling pests containing 1 g/m² of the active ingredient. A material for controlling pests with pyriproxyfen as insect growth regulator prepared according to Production Example 5 was formed into a size of 15 cm x 15 cm. It was set on one wall surface of a nylon net cage of 30 cm x 30 cm x 30 cm in size. About 100 adults of sweetpotato whitefly were released in the cage together with kidney bean on which the adults had been parasitized. One day after release of the adults, a potted kidney bean having no adults parasitized thereon was set in the cage for oviposition. Among the eggs laid on the potted kidney bean until the next day, the number of unhatched eggs was counted.

greenhouse whiteflies [2] = assay: Test Example 10: yellow polyethylene sheet (Production Example 9) set beside tomato, count of adults; type: in vivo, Trialeurodes vaporariorum
Protocol: (§2) Ninety-eight parts by weight of a polyethylene resin (Sumikathene®; a registered trade mark of Sumitomo Chemical Co., Ltd.), 1 part by weight of pyriproxyfen, a juvenile hormone-like compound, and 1 part by weight of a polyethylene colored master batch for yellow coloration (SPEM 305 produced by Sumika Color Co., pigment content: 12 wt.%) are kneaded with a pressure kneader and then pelletized. The resulting pellet is extruded through an extruder equipped with a T-dies at 160° to 180°C to obtain a sheet-form material for controlling pests of 1 mm in thickness. A sheet-like material for controlling pests prepared according to Production Example 9 was formed into a size of 15 cm x 15 cm. It was set at the same height as that of a container (80 cm x 112 cm x 45 cm) in which tomato having greenhouse whiteflies parasitized thereon had been planted. On the other hand, a yellow film containing no insect growth regulator was set as a control in the same manner as in setting the above material for controlling pests. On the predetermined day, the number of greenhouse whitefly adults parasitized on the tomato was counted.

Thrips palmi [3] = assay: Test Example 3: blue cloth material (Production Example 3) in glass vessel with cucumber seedlings, count of adults; type: in vivo; details: 0.16 mg/cm², 28° ±1°C
Protocol: The same procedure as in Production Example 2 is repeated except that a blue cloth replaces the yellow cloth, to obtain a material for controlling pests containing 0.16 mg/cm² of the active ingredient.
Soil was placed on the bottom of a glass vessel of 70 cm x 35 cm x 35 cm in size. Three cucumber seedlings, on which Thrips palmi had been parasitized, were planted at the central part of the glass vessel. After three days, a material for controlling pests with pyriproxyfen as insect growth regulator prepared according to Production Example 3 was formed into a size of 15 cm x 15 cm and set at a height of 5 cm above the ground. On the other hand, the same test was carried out using a blue cloth containing no insect growth regulator as a control.
as §1

sweetpotato whiteflies = assay: Test Example 11: yellow polyethylene sheet (Production Example 9), pest-controlling effect, count of adults; type: in vivo, Bemisia tabaci
Protocol: as §2, with “counted. In the same manner as in Test Example 10, the pest-controlling effect on sweetpotato whiteflies was examined.” for “counted.”

greenhouse whiteflies [4] = assay: Test Example 1: yellow cloth material (Production Example 2) set beside tomato, count of adults; type: in vivo, Trialeurodes vaporariorum
Protocol: 0.4 Part of the insect growth regulator is dissolved in 40 parts of acetone and further 0.8 part of rape seed oil is added thereto. Thirty-one milliliters of the resulting solution is absorbed in a yellow cloth of 21 cm x 92 cm in size. Acetone is then vaporized to obtain a material for controlling pests containing 0.16 mg/cm² of the active ingredient. A material for controlling pests with pyriproxyfen as insect growth regulator was prepared according to Production Example 2. It was set at the same height as that of a container (80 cm x 112 cm x 45 cm) in which tomato having greenhouse whiteflies parasitized thereon had been planted. On the other hand, a yellow cloth containing no insect growth regulator was set as a control at a distance of about 8 m. On the predetermined day, the number of greenhouse whitefly adults parasitized on the tomato was counted.

## CC(COc1ccc(Oc2ccccc2)cc1)Oc1ccccn1 (centres unmarked) [pyriproxyfen, 4-phenoxyphenyl 2-(2-pyridyloxy)propyl ether]
Thrips palmi [1]; 0 days elapsed after setting, blue polyethylene sheet 15 cm x 15 cm
  number of Thrips palmi adults parasitized on the cucumbers: 3
Thrips palmi [1]; 7 days elapsed after setting, blue polyethylene sheet
  number of Thrips palmi adults parasitized on the cucumbers: 4
Thrips palmi [1]; 14 days elapsed after setting, blue polyethylene sheet
  number of Thrips palmi adults parasitized on the cucumbers: 3
Thrips palmi [1]; 21 days elapsed after setting, blue polyethylene sheet
  number of Thrips palmi adults parasitized on the cucumbers: 2
Sweetpotato whitefly
  Hatching inhibitory rate (%): 99.0%
Greenhouse whiteflies [2]; 0 days elapsed after setting, yellow polyethylene sheet 1 mm, 1 part by weight pyriproxyfen, 15 cm x 15 cm
  number of greenhouse whitefly adults parasitized on the tomato (mean value per cup): 105
Greenhouse whiteflies [2]; 7 days elapsed after setting, yellow polyethylene sheet
  number of greenhouse whitefly adults parasitized on the tomato (mean value per cup): 78
Greenhouse whiteflies [2]; 14 days elapsed after setting, yellow polyethylene sheet
  number of greenhouse whitefly adults parasitized on the tomato (mean value per cup): 75
Greenhouse whiteflies [2]; 18 days elapsed after setting, yellow polyethylene sheet
  number of greenhouse whitefly adults parasitized on the tomato (mean value per cup): 50
Greenhouse whiteflies [2]; 28 days elapsed after setting, yellow polyethylene sheet
  number of greenhouse whitefly adults parasitized on the tomato (mean value per cup): 20
Greenhouse whiteflies [2]; 35 days elapsed after setting, yellow polyethylene sheet
  number of greenhouse whitefly adults parasitized on the tomato (mean value per cup): 10
Greenhouse whiteflies [2]; 42 days elapsed after setting, yellow polyethylene sheet
  number of greenhouse whitefly adults parasitized on the tomato (mean value per cup): 3
Thrips palmi [3]; 0 days elapsed after setting, blue cloth 15 cm x 15 cm
  number of Thrips palmi adults parasitized on the cucumbers: 5
Thrips palmi [3]; 7 days elapsed after setting, blue cloth
  number of Thrips palmi adults parasitized on the cucumbers: 5
Thrips palmi [3]; 14 days elapsed after setting, blue cloth
  number of Thrips palmi adults parasitized on the cucumbers: 3
Thrips palmi [3]; 21 days elapsed after setting, blue cloth
  number of Thrips palmi adults parasitized on the cucumbers: 2
Sweetpotato whiteflies; 0 days elapsed after setting
  number of sweetpotato whitefly adults (pest-controlling effect): 70
Sweetpotato whiteflies; 7 days elapsed after setting
  number of sweetpotato whitefly adults (pest-controlling effect): 30
Sweetpotato whiteflies; 14 days elapsed after setting
  number of sweetpotato whitefly adults (pest-controlling effect): 20
Sweetpotato whiteflies; 18 days elapsed after setting
  number of sweetpotato whitefly adults (pest-controlling effect): 18
Sweetpotato whiteflies; 29 days elapsed after setting
  number of sweetpotato whitefly adults (pest-controlling effect): 8
Sweetpotato whiteflies; 35 days elapsed after setting
  number of sweetpotato whitefly adults (pest-controlling effect): 5
Greenhouse whiteflies [4]; 0 days elapsed after setting, 0.16 mg/cm² active ingredient, rape seed oil
  number of greenhouse whitefly adults parasitized on the tomato (mean value per cup): 102
Greenhouse whiteflies [4]; 7 days elapsed after setting, 0.16 mg/cm²
  number of greenhouse whitefly adults parasitized on the tomato (mean value per cup): 82
Greenhouse whiteflies [4]; 14 days elapsed after setting, 0.16 mg/cm²
  number of greenhouse whitefly adults parasitized on the tomato (mean value per cup): 82
Greenhouse whiteflies [4]; 18 days elapsed after setting, 0.16 mg/cm²
  number of greenhouse whitefly adults parasitized on the tomato (mean value per cup): 53
Greenhouse whiteflies [4]; 28 days elapsed after setting, 0.16 mg/cm²
  number of greenhouse whitefly adults parasitized on the tomato (mean value per cup): 18
Greenhouse whiteflies [4]; 35 days elapsed after setting, 0.16 mg/cm²
  number of greenhouse whitefly adults parasitized on the tomato (mean value per cup): 12
Greenhouse whiteflies [4]; 42 days elapsed after setting, 0.16 mg/cm²
  number of greenhouse whitefly adults parasitized on the tomato (mean value per cup): 5

From patent EP0548931A1, “Material for controlling pests” (SUMITOMO CHEMICAL COMPANY, LIMITED, priority 1991, dated 1993)
